The values below come from patent US11154515B2, “Pharmaceutical compositions comprising cannabidiol and beta-caryophyllene and methods for their use” (priority 2017, dated 2021).

Read-outs that look alike come from different tables or passages of the source.

Assay [1] has as its system NF-κB and AP-1 inducible SEAP reporter in RAW-Blue™ cells. Nature of the assay: RAW-Blue™ cells Quanti-Blue™ SEAP reporter assay, LPS-stimulated (high-throughput inflammatory assay). The format is cell-based, murine. From the text:
RAW 264.7 macrophages are commonly used to study the functional characteristics of the endocannabinoid system (ECS). Specifically, this model is widely employed to assess the anti-inflammatory functions of the ECS (Carrier, et al. 2006, “Inhibition of an equilibrative nucleoside transporter by cannabidiol: A mechanism of cannabinoid immunosuppression,” PNAS, 103(20), 7895-7900). RAW-Blue™ cells are derived from RAW 264.7 macrophages and are genetically modified to comprise a secreted embryonic alkaline phosphatase (SEAP) reporter construct that is inducible by NF-κB and AP-1. These RAW-Blue™ cells express a variety of pattern recognition receptors, including Toll like receptor 4 (TLR4). The activation of these pattern recognition receptors on the RAW-Blue™ cells (e.g., by lipopolysaccharide (LPS) in the case of TLR4) induces signaling through NF-κB and/or AP-1, thereby leading to increased secretion of the SEAP reporter gene. Therefore, the RAW-Blue™ macrophages and provide a robust, high-throughput model of inflammatory processes.
RAW-Blue™ cells were cultured in high-glucose containing Dulbecco's Modified Eagle Medium (Merck) supplemented with 10 (V/V) % fetal bovine serum (FBS; ThermoFisher), 2-4 mM L-glutamine, 50 U/mL penicillin, 50 μg/mL streptomycin as well as with antibiotics for selection: 100 μg/mL Normocin™ (InvivoGen) and Zeocin™ (InvivoGen). Cells were cultured at 37° C. in humidified, 5% CO2 containing atmosphere. The medium was changed every other day, and cells were sub-cultured at 70-80% confluence.
For each of these phases, 100,000 RAW-Blue™ cells/well were seeded in a 96-well plate in triplicate and cultured for 24 hours to allow attachment of the macrophages to the cell culture plate. After 24 hrs cells were pre-treated with selected concentrations of CBD, BCP, or CBD+BCP. Two hours after drug pre-treatment, cells were stimulated with 0.1 μg/mL LPS (Sigma-Aldrich) to induce activation of the TLR4 pathway. After 24 hours of LPS stimulation, 150 μL Quanti-Blue™ Medium was aliquoted per well in a 96-well plate and 50 μL of the experimental supernatants were added per well. Cell culture medium was used as negative control. After 1 hour incubation, SEAP levels were detected by measuring absorbance levels at λ=650 nm at 37° C. Results are expressed as a % decrease in SEAP levels in drug-treated, LPS-stimulated groups compared to the SEAP level of the untreated, LPS-stimulated group (regarded as 100%). All experiments were repeated 2-3 times.
A general note: A reporter such as luciferase makes a cellular process visible.

Assay [2] concerns male NMRI mice, carrageenan-induced paw edema. Nature of the assay: Carrageenan-induced paw edema, plethysmometry. Type of assay: in vivo, mouse. The settings on record: for basal paw volume vs vehicle-treated mice: single doses i.p. (CBD 0.5, 1, 10, 30 mg/kg; BCP 1, 5, 10, 30 mg/kg), 30 min after administration. The procedure: (§1) CBD and BCP solutions (≥80%, FCC, FG) were dissolved in a solution containing 10% Tween 80 and 90% saline (vehicle) and were freshly prepared immediately before use. Mice were treated with drug solutions or vehicle control by intraperitoneal (i.p.) injection at a volume of 0.1 mL/10 g body weight. Acute paw injury was induced by intraplantar injection of 20 μL 3% carrageenan (dissolved in 0.9% NaCl, Sigma Aldrich, St. Louis, Mo., USA) into the right hind paw.
(§2) Experiments were performed on 7-16-week-old male NMRI mice (30-50 g) provided with standard chow and water ad libitum. Mice were divided into groups and treated with a single dose of vehicle control (VEH), CBD, BCP, or CBD+BCP delivered i.p. 30 minutes after drug administration, measurements were taken to determine baseline values for mechanonociceptive thresholds and paw volumes. 35 minutes after drug administration, 20 μL of 3% carrageenan was injected intraplantarly (i.pl.) in the right hind paws. 3 hours after carrageenan administration, additional measurements were taken to determine the mechanonociceptive thresholds and paw volumes of the ipsilateral and contralateral paws.
Baseline and post-carrageenan injection paw volume was determined by plethysmometry (Ugo Basile Plethysmometer 7140, Comerio, Italy) and expressed in cubic centimeter (cm^3). Paw edema was presented as percentage increase of baseline values obtained prior to carrageenan administration (Bolcskei K. et al., Pain. 2005; 117:368-76).
In general terms: The carrageenan paw model is a standard test of acute inflammation.

For assay [3], the system named is male NMRI mice, mechanonociceptive threshold of the hind paws. Nature of the assay: Carrageenan-induced mechanical hyperalgesia, mechanonociceptive threshold by dynamic plantar aesthesiometry. The settings on record: for carrageenan-induced drop of the mechanonociceptive threshold: 3 hours after carrageenan; for effect on mechanonociceptive threshold when applied alone: CBD 1 mg/kg, BCP 10 mg/kg; for suppression of the mechanonociceptive threshold by carrageenan: most CBD and BCP single pre-treatments, three hours after carrageenan; for basal mechanonociceptive threshold vs vehicle-treated mice: single doses i.p. (CBD 0.5, 1, 10, 30 mg/kg; BCP 1, 5, 10, 30 mg/kg), 30 min after administration. Type of assay: in vivo, mouse. The procedure:
as §1, §2
The mechanonociceptive threshold of the hind paws were measured by dynamic plantar aesthesiometry (DPA, Ugo Basile 37400, Comerio, Italy). Mice were placed into plexiglass boxes with a wire grid floor. After acclimation, the plantar surface was touched with a straight metal filament, lifting with increasing upward force (until the animal withdrew his paw or until the maximum force of 10 g was reached (maximum force of 10 g reached within 4 s). Mechanonociceptive thresholds are expressed in gram (g), while mechanical hyperalgesia is represented as a percentage decrease from the initial withdrawal thresholds (i.e., before drug and carrageenan administration) (Bolcskei K. et al., Pain. 2005; 117:368-76).

Setting [4] is: most CBD and BCP single dose pre-treatments, three hours after i.pl. carrageenan.
[5] abbreviates: Mus musculus, RAW-Blue, read-out: % Inhibition Alone.

In general, inhibition refers to how much of the control response was suppressed. With `C=C(C)[C@@H]1CCC(C)=C[C@H]1c1c(O)cc(CCCCC)cc1O` [CBD, cannabidiol], the inhibition at 10 pM in assay [1] (Mus musculus, RAW-Blue, single agent 0.00001 μM, read-out: % Inhibition Alone) worked out at 1.9 ± 0.9%. Further, in assay [1] (Mus musculus, RAW-Blue, single agent 0.0001 μM, read-out: % Inhibition Alone), the inhibition at 0.0001 µM stood at 2.4 ± 2%. Further, the inhibition at 0.001 µM in assay [1] (Mus musculus, RAW-Blue, single agent 0.001 μM, read-out: % Inhibition Alone) was determined as 3.1 ± 3.1%. Further, the inhibition at 0.01 µM in assay [1] (Mus musculus, RAW-Blue, single agent 0.01 μM, read-out: % Inhibition Alone) was determined as 5.8 ± 2.9%. For the same molecule, the inhibition at 0.1 µM in assay [1] (Mus musculus, RAW-Blue, single agent 0.1 μM, read-out: % Inhibition Alone) came to 8.5%. Moreover, in assay [1] (Mus musculus, RAW-Blue, single agent 0.3 μM, read-out: % Inhibition Alone), the inhibition at 0.3 µM was 10 ± 0.8%. For the same molecule, in assay [1] (Mus musculus, RAW-Blue, single agent 1 μM, read-out: % Inhibition Alone), the inhibition at 1 µM worked out at 44.6%. Also, the inhibition at 3 µM in assay [1] (Mus musculus, RAW-Blue, single agent 3 μM, read-out: % Inhibition Alone) worked out at 40.5 ± 9.5%. Moreover, the inhibition at 10 µM in assay [1] (Mus musculus, RAW-Blue, single agent 10 μM, read-out: % Inhibition Alone) worked out at 59.3 ± 3.7%. Also, in assay [1] (Mus musculus, RAW-Blue, single agent 30 μM, CBD value flagged * possibly cytotoxicity, read-out: % Inhibition Alone), the inhibition at 30 µM was found to be 78 ± 7.9%. In addition, the “concentrations with marked effects on SEAP levels” value in assay [1] (applied alone) was not below 1 µM. The “% Inhibition Alone” value in assay [1] (single agent 30 μM, CBD value flagged * possibly cytotoxicity) is listed as “*78 ± 7.9%”. For the same molecule, the “carrageenan-induced increase of the paw volume” value is “not influenced” in assay [2] (0.5 mg/kg CBD alone, 3 hours after carrageenan); “not influenced” in assay [2] (1 mg/kg CBD alone, 3 hours after carrageenan); “only mildly influenced” in assay [2] (setting [4]). Moreover, the “basal paw volume vs vehicle-treated mice” value in assay [2] is reported as “none of the investigated single doses of CBD or BCP influenced the basal paw volume”. The “carrageenan-induced drop of the mechanonociceptive threshold” value in assay [3] (0.5 mg/kg CBD alone) and in assay [3] (1 mg/kg CBD alone) was “not influenced” each time. The “effect on mechanonociceptive threshold when applied alone” value in assay [3] is reported as “negligible effects”. For the same molecule, the “suppression of the mechanonociceptive threshold by carrageenan” value in assay [3] is recorded as “only mildly influenced”. Also, the “basal mechanonociceptive threshold vs vehicle-treated mice” value in assay [3] is “none of the investigated single doses of CBD and BCP influenced the basal mechanonociceptive threshold”.
As for `C=C1CC/C=C(\C)CC[C@H]2[C@H]1CC2(C)C` [BCP, (E)-beta-caryophyllene], in assay [1] (setting [5]), the inhibition at 0.0001 µM was 0%, the inhibition at 0.001 µM was 1 ± 0.8%, the inhibition at 0.01 µM is 3.8 ± 1.9% and the inhibition at 0.013 µM was 9.2%. In assay [1] (setting [5]), the inhibition at 0.1 µM was found to be 8 ± 6.4%, the inhibition at 0.13 µM was 0%, the inhibition at 0.3 µM was 1.6 ± 1.4% and the inhibition at 1 µM came out at 2.5 ± 2%. Besides, in assay [1] (setting [5]), the inhibition at 3 µM worked out at 1.25 ± 1%, the inhibition at 10 µM is 28.6 ± 14.3%, the inhibition at 30 µM turned out to be 0% and the inhibition at 100 µM turned out to be 11.7 ± 5.8%. Further, the inhibition at 300 µM in assay [1] (setting [5]) was found to be 92.2 ± 17.1%. In addition, the “anti-inflammatory actions when applied alone” value in assay [1] (SEAP levels) is “only minor (if any) anti-inflammatory actions”. In addition, the “% Inhibition Alone” value in assay [1] (single agent 300 μM, * possibly cytotoxicity) is on record as “*92.2 ± 17.1%”. The molecule further had a carrageenan-induced paw edema in assay [2] (30 mg/kg i.p., three hours after carrageenan, vehicle 60%, p<0.0001) of 20%. In addition, in assay [2] (setting [4]), the “carrageenan-induced increase of the paw volume” value is reported as “only mildly influenced”. For the same molecule, in assay [2], the “basal paw volume vs vehicle-treated mice” value is given as “none of the investigated single doses of CBD or BCP influenced the basal paw volume”. Moreover, the carrageenan-induced mechanical hyperalgesia result in assay [3] (30 mg/kg i.p., vs vehicle, p<0.001) is reported as “significantly reduced”. Also, in assay [3], the “effect on mechanonociceptive threshold when applied alone” value was “negligible effects”; the “suppression of the mechanonociceptive threshold by carrageenan” value is on record as “only mildly influenced”; the “basal mechanonociceptive threshold vs vehicle-treated mice” value was “none of the investigated single doses of CBD and BCP influenced the basal mechanonociceptive threshold”.
